Source: patent EP4567040A1, “CRYSTAL FORM OF FUSED TRICYCLIC DERIVATIVE AND PREPARATION METHOD” (Jiangsu Hengrui Pharmaceuticals Co., Ltd., priority 2022, dated 2024)

Target: T1, human PXR (Homo sapiens, UniProt O75469)
T1 construct: host or cells: DPX2 (HepG2 stably transfected)
T1 sequence (O75469 1-434): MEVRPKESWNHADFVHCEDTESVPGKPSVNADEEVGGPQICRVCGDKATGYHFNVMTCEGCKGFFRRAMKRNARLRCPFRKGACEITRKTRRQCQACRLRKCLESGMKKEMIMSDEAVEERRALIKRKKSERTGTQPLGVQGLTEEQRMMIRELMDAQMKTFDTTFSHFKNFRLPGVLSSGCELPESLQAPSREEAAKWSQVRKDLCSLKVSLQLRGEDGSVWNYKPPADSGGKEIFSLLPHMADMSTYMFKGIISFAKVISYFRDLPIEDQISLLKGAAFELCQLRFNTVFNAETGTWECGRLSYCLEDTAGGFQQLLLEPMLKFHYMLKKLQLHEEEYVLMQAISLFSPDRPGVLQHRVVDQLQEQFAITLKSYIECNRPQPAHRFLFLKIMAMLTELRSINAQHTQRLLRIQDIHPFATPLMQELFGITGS
Experiment: PXR induction assay in DPX2 cells (luciferase reporter)
Type: cell-based
Conditions: for fold induction at 24 h, 0.123 µM: compound concentration 0.123 µM; for fold induction at 24 h, 10 µM: compound concentration 10.0 µM
Description: • 1. […] The final concentration of DMSO was 0.1%. […] The reagent was gently and well mixed, and the mixture was incubated and well mixed at room temperature for 5 min.

Row | fold induction at 24 h, 0.123 µM | fold induction at 24 h, 10 µM | Structure (SMILES)
1 | 0.87 | 1.43 | C[C@H]1COc2c(-c3nc(N[C@@H]4CCOC[C@H]4O)ncc3Cl)cc(F)c3nc(C(C)(C)O)n1c23 (single isomer, unassigned) [Isomer 1 with a retention time of 2.078 min]
2 | 0.99 | 1.48 | C[C@@H]1COc2c(-c3nc(N[C@@H]4CCOC[C@H]4O)ncc3Cl)cc(F)c3nc(C(C)(C)O)n1c23 (single isomer, unassigned) [Isomer 2 with a retention time of 1.887 min]
